In article PMC7828228, “Babesia Bovis Ligand-Receptor Interaction: AMA-1 Contains Small Regions Governing Bovine Erythrocyte Binding” (International Journal of Molecular Sciences, 2021):
Ends that are not written are not given here.

Key:
bovine erythrocytes = assay: Radiolabelled peptide bovine erythrocyte binding assay (initial screen)
Experimental: Peptide selection was based on the degree of conservation and the presence of functionally constricted regions found throughout B. bovis ama-1 gene. Twelve peptides were synthesised using the tert-butoxycarbonyl (t-Boc) strategy and solid-phase synthesis methodology. Cysteine residues were replaced by serine residue to avoid oxidation; a tyrosine residue was added to peptides lacking one in their native sequences to enable radiolabelling. The peptides were analysed using reversed-phase high-performance liquid chromatography (RP-HPLC) and MALDI-TOF mass spectrometry (Bruker Daltonics) after having been cleaved by the low–high hydrogen fluoride technique. Every peptide (10 μL) diluted at 1mg/mL in 4-(2-hydroxyethyl)-1-piperazineethanesulphonic acid buffered saline (HBS) was individually radiolabelled for 15 min using 3 μL Na^125I (100 mCi/mL; ARC) and 15 μL chloramine T (2.75 mg/mL). […] A gamma counter (Packard Cobra II) was used for measuring/quantifying single samples’ radioactivity.
(§1) The assays for every B. bovis AMA-1-derived synthetic peptide binding to bovine erythrocytes were carried out as described for P. falciparum, with some modifications. […] HABP bovine erythrocyte binding selection criteria were determined according to that established for P. falciparum. […]

bovine RBCs = assay: Saturation assay of radiolabelled HABPs; type: binding; conditions: saturation analysis; 7.5 × 10^7 RBCs, radiolabelled HABP 0–6000 nM, ± unlabelled peptide ~26 μM, 90 min at RT, 1:1 interaction model
Experimental: Modified binding assays were carried out to determine kinetic constants associated with B. bovis AMA-1 HABP binding interaction with bovine RBCs. Briefly, 7.5 × 10^7 RBCs were incubated with a wide range of concentrations of each radiolabelled HABP (0–6000 nM) in the absence or presence of unlabelled peptide (~26 μM) at final 245 μL volume. Samples were incubated for 90 min at RT and then washed twice with HBS before measuring cell-associated radioactivity on a gamma counter. Equilibrium dissociation constants (kD), equivalent to the ligand concentration (moles/litre) occupying half of the receptors, were calculated by equilibrium phase curve (using a 1:1 interaction model). Hill coefficients (nH) were calculated by taking saturation results; positive cooperativity was assumed if nH had values higher than 1 which could have been the result of a binding site’s increased affinity due to a ligand’s previous binding to another site. Conversely, nH values lower than 1 would have indicated negative cooperativity (also called antagonism) and the first ligand molecule’s binding would have reduced the probability of a second molecule binding.

[1] = system: trypsin-, chymotrypsin-, and neuraminidase-treated bovine erythrocytes; assay: Binding assay with enzyme-treated erythrocytes; conditions: 37 °C, 1h 30 min, untreated RBC as control, SD below 5%
Experimental: A blood sample was obtained by jugular venepuncture from a clinically healthy Normande 18month-old bull and collected in anticoagulant tubes. The animal was properly restrained/fastened and then its head was secured by a strap and rope. After locating the external jugular vein and applying pressure, the area was disinfected with ethanol for inserting the needle at a 30° angle and 20 mL blood samples were collected in tubes containing sodium citrate using the closed system. The above procedures and animal maintenance and handling were carried out at the Remanso farm, according to guidelines for the care of large animals established by Universidad de Ciencias Aplicadas y Ambientales (U.D.C.A)’s ethics committee (regulated by agreement No. 285/2008) using the protocol described in the minute 201901. The collected blood was washed thrice with HBS (1:1 ratio) to eliminate the sera and the leucocyte layer by spinning at 1600× g for 5 min for each run. A 60% erythrocyte solution was incubated at 37 °C for 1h 30 min with trypsin (1 mg/mL), chymotrypsin (1 mg/mL) and neuraminidase (100 μU/mL). After three washes using 250× g for 3 min, 4 × 10^5 erythrocytes were incubated with 5 μM […] at 37 °C for 45 min in the dark. An assay was carried out with erythrocytes treated at 37 °C for 30 min or with 0.05% or 0.005% triton X-100 for 15 min at room temperature (RT) for using them as cell lysis controls. A FACSC Canto II cytometer (BD) was used for determining cell viability by analysing 100,000 events.
as §1

[2] = system: bovine erythrocyte membrane receptor; assay: Cross-linking assay (BS3, SDS-PAGE, autoradiography); type: binding; conditions: autoradiogram, Figure 2c
Experimental: Cross-linking assays were used in triplicate for evaluating B. bovis AMA-1 interaction with any membrane receptor. The assay consisted of incubating radiolabelled peptide with 7.5 × 10^7 bovine erythrocytes (v/v) at RT for 2 h at 4 rpm. A competition assay was used as control using an excess of non-radiolabelled peptide. The mixture was incubated for two hours at RT with 0.4 µg/mL bis(sulphosuccinimidyl) suberate (BS3) and then washed thrice with HBS. The cells were then lysed in 30 µL lysis buffer (15 µL buffer A (50 mM Tris-HCl, 100 mM NaCl and 0.1 mM EDTA) and 15 µL buffer B (0.5 M Tris-HCl, 10% SDS (w/v), 25% glycerol, 0.5% (w/v) bromophenol blue and […] β-mercaptoethanol, pH 6.8)) and spun at 14,000× g for 10 min. SDS-PAGE was used for separating the proteins and radioactivity signals were observed by autoradiography. Radiolabelled peptide 43437 (1 µM) binding competition assay involved using different non-radiolabelled peptide 42438 concentrations (0–160 µM).

[3] = molecular target: receptor on bovine erythrocytes having an apparent 75 kDa molecular weight (bovine (endogenous in bovine erythrocytes)); assay: radioligand binding; saturation: 7.5 x 10^7 bovine erythrocytes, 125I-peptide 0-6000 nM without or with ~26 μM unlabelled peptide, 245 μL, 90 min at RT, HBS washes; 1:1 model, Hill plot
[4] = molecular target: receptor on bovine erythrocytes having an apparent 75 kDa molecular weight (bovine (endogenous in bovine erythrocytes)); assay: radioligand binding; as the screen but on erythrocytes treated beforehand with trypsin (1 mg/mL), chymotrypsin (1 mg/mL) or neuraminidase (100 μU/mL); 1 h at 37 °C without shaking; untreated erythrocytes as control

With CPMHPVRDAIFGKWSGGSCV [compound 42443] the “specific binding slope (binding activity)” value (bovine erythrocytes; 7.5 × 10^7 normal cells, 2 h at RT, radiolabelled peptide 20–200 nM, absence or presence of non-radiolabelled peptide 20 μM, 200 μL, triplicate, HABP if slope ≥0.01 (1%)) was greater than 0.01, the Kd (bovine RBCs) was 2400 nM and the “reduction of binding with chymotrypsin-treated erythrocytes” value ([1]; erythrocytes treated with chymotrypsin 1 mg/mL) was 46%. For the same molecule, the “reduction of binding with neuraminidase-treated erythrocytes” value ([1]; erythrocytes treated with neuraminidase 100 μU/mL) was 42%, the “reduction of binding with trypsin-treated erythrocytes” value ([1]; erythrocytes treated with trypsin 1 mg/mL) was “a lesser effect” and the “intensity of cross-linking interaction with the receptor” value [2] was “significantly less intense”.

With RGVGMNWATYDKDSG [^395R-G^409] the “interaction with bovine erythrocytes (binding activity, in words)” value (bovine erythrocytes; radiolabelled peptide-cell interaction assay, Figure 1b) was “did not interact with bovine erythrocytes”.

YMQKFDIPRNHGSGIYVDLG (also: 125I radio-iodination, site not given here) [B. bovis AMA-1 Domain I-derived peptide 42437] showed a Kd [3] of 1100 nM, a percent reduction of binding, chymotrypsin-treated against untreated erythrocytes [4] of 58% and a percent reduction of binding, neuraminidase-treated against untreated erythrocytes [4] of 36%. It also gave a percent reduction of binding, trypsin-treated against untreated erythrocytes [4] of 31%.

Molecule GYESVGSKSYRMPVGKSPVV (also: 125I radio-iodination in tracer use, site not given here) [B. bovis AMA-1 Domain I-derived peptide 42438] has a Kd [3] of 1300 nM and a percent reduction of binding, chymotrypsin-treated against untreated erythrocytes [4] of 66%.
